Where a chain is given by its changes, count along the chain named.
How the values were obtained:
Lepr^-/- (db/db) mice = assay: PLX5622 treatment of leptin-receptor deficient mice that spontaneously develop obesity; type: in vivo, mouse
Description: (§1) Mice and diets. All experiments on mice were realized in accordance with an animal license issued by the Institutional Review Board (IACUC 15-04-006) from MSKCC. All mice were maintained under SPF conditions. C57B1/6J male mice were purchased from Jackson laboratories. Rosa26^LSL-Tomato (Stock No: 007908), Rosa26^LSL-^YFP (Stock No:006148), Rosa26^mTmG (Stock No: 007576) and Lepr^-/-(db/db) (herein referred to as Lepr^-/-; Stock No: 000697) mice were purchased from Jackson laboratories and bred in house. Csf1r^Cre, Csf1r^MeriCreMer, and Csf1r^fl/fl mice were obtained from J W. Pollard (The University of Edinburgh), Cx3cr1^GFP/+ mice were obtained from Drs. Dan Littman (NYU Skirball institute), Flt3^Cre mice were obtained from Thomas Boehm (Max Planck institute) and Tnfrsf11a^Cre mice were obtained from Y. Kobayashi (Matsumoto Dental University). Ccr2^-/- mice were obtained from IF. Charro (UCSF) Csf1r^-/- mice were backcrossed to FVB/NJ for more than 10 generations. Mice were fed ad libitum a rodent irradiated diet containing 45% kcal from lipids (Research Diets Inc., reference D12451i) or 10% kcal from lipids (Research Diets Inc., reference D12450hi) for 8 weeks. In mice supplemented with the CSF-1R inhibitor PLX5622 (Plexxikon), the aforementioned diets were impregnated with 1200 mg of inhibitor per kg of food. In the experiment named 45%>10% the mice were fed 45% lipid diet for 8 weeks then 10% lipid diet for 2 weeks and compared to mice fed 10% lipid diet for 10 weeks. Mice were weighed weekly. Tnfrsf11a^Cre; Csflr^f/f and Csf1r^Cre; Csf1r^f/f mice are osteopetrotic and as such lack teeth. To prevent confounding systemic effects due to nutritional intake problems, the Tnfrsf11a^Cre; Csf1r^f/f Csf1r^Cre; Csf1r^f/f and control littermates were fed a nutritionally fortified water gel. The nutritional gels were replaced every 12 hours.
(§2) Metabolic analysis of Leptin receptor deficient mice, PLX5622-treated mice, anti-PDGFcc treated mice, and control C57Bl/6J mice. Animals were individually housed in a temperature controlled Promethion Metabolic Screening System (Sable Systems International, NV). Food intake was acquired gravimetrically and ambulatory activity was acquired using a laser matrix. Mice were acclimated to this environment on a 12 hr light/dark cycle for 48 hr before the indicated length of recording (24 hr to 120 hr) period began. Fecal bomb calorimetry was performed on feces collected during the last day of metabolic cage recording period, dehydrated in an oven at 60C for 48 hr, then combusted in technical duplicates with a Parr 6725 Semimicro Calorimeter to determine gross caloric intake.
Triglyceride Measurement for Mice. To measure triglycerides, ~ 100 mg of mouse liver was homogenized in 100 µl of PBS + 0.05% Tween 20. Triglyceride was then measured using the free glycerol reagent (Sigma; F6428) as described in the manufacturer’s protocol and normalized to the liver weight.
To quantify the size of the adipocytes, the software image J was used. Regions of interest (ROI) were drawn following the cellular membrane of the adipocytes and the surface of the ROI was determined by the software. 50 adipocytes were measured per field of view of the eWAT. Adipocytes were measured on 3 fields of view, taken with N-Achroplan 10x/0.25 objective. Crown-like structures (CLS) were quantified on the same fields of view. Crown like structures were defined as microscopic foci of dying adipocytes surrounded by macrophages as visualized by H&E staining.

C57B1/6J mice = assay: Treatment of C57Bl/6J mice fed 45% or 10% lipid diet (diet-induced obesity); type: in vivo, mouse; conditions: 1,200 mg PLX5622/kg of food
Description: as §1
Glucose and insulin tolerance tests were performed as described; in brief, for the glucose tolerance test, the mice were fasted for 4h before experiment, but had water ad libitum. The weight and glycaemia were measured, and the mice were injected intraperitoneally with 2 g glucose (Thermo Scientific) per kg of body weight. Following the glucose injection, glycemia was measured every 30 min for 2 hours. For the insulin tolerance test, the mice were fasted for 4h before experiment, but had water ad libitum. The weight and the glycaemia were measured, and the mice were injected with 0.25U insulin (Sigma) per kg of body weight. Following the glucose injection, glycemia was measured every 30 min for 2 hours. To measure the glycaemia, the tail of the animals was pricked with a 27G needle and a drop of blood was placed on the glucometer (ACCU-CHECK AVIVA, Roche). […]
as §2
Infrared imaging of mice. Infrared images were taken on the last day of metabolic analysis using a FLIR T430sc Infrared Camera. These images were into RAW files and then analyzed in AMIDE. A box was drawn over region of interest (ROI); interscapular (70×30), inguinal (35×35) and dorsal. The 10% top warmest pixels were used for interscapular and inguinal quantifications. The 20% top warmest pixels were used for dorsal quantifications. […]

[1] = system: epididymal fat pad explants; assay: eWAT (epididymal fat pad) explants cultured ex vivo, lipid storage by adipocytes; type: cell-based, mouse; conditions: Tnfrsf11a^Cre; Csf1r^f/f fat pads; 100 ng/ml PDGFcc, 10 ng/ml VEGFb or 10 ng/ml IGF1 on days 0, 3, 6
Procedure: Whole Mount Imaging and Cytology of Sorted Macrophages. For whole mount immunofluorescence imaging, after anesthesia and blood collection by cardiac puncture, the mice were perfused with 10 mL PBS at room temperature. Approximately 3 mm^3 pieces of the tissue were incubated in 4% paraformaldehyde (PFA) (Electron Microscopy) diluted in PBS for 30 min at room temperature with agitation, then rinsed with PBS and stained with directly conjugated antibodies for 30 minutes. Then the samples were rinsed with PBS 3× and mounted on cavity slides (Sigma) with Fluoromount G (eBioscience). Approximately 50 µm thick Z-stack and tile scan were acquired with LSM880 Zeiss microscope with 40x/1.3 (oil). Image analysis was performed using Imaris (Bitplane) software.
In Vitro Epididymal Adipose Tissue Explants. Epididymal fat pads of 4-day-old Tnfrsf11a^Cre+Csf1r^fl/fl mice and littermates were dissected and incubated in RPMI with 10% heat de-activated FBS at 37° C. for 14 days. Fresh medium was added to the explants on day 7. At the termination of the experiment, the explants were fixed in 4% PFA for 30 minutes at room temperature with agitation and then rinsed in PBS and permeabilized for 15 minutes in PBS + 0.03% Triton. Subsequently, the explants were blocked with 2% BSA and stained with directly conjugated antibodies. To remove macrophages from wt epididymal fat pads in vitro, 15 µM of the CSF1R inhibitor PLX5622 was added to explants on day 0 and 7 following the addition of fresh medium. For the in vitro rescue experiments, epididymal fat pads of Tnfrsf11a^Cre; Csf1r^fl/fl mice and littermates as well as […] treated fat pads were supplemented with 100 ng/ml of recombinant mouse PDGFcc (R&D systems), 10 ng/ml of recombinant mouse VEGFb (R&D systems), or 10 ng/ml of recombinant mouse IGF1 (R&D systems) three times on days 0, 3, and 6.

PDGFRB/B homodimers = PDGFRB/B homodimers (Homo sapiens, UniProt P09619); conditions: Gilbertson et al. 2001; cited from earlier work
PDGFRB/B homodimers, sequence (P09619 33-1106, species assumed): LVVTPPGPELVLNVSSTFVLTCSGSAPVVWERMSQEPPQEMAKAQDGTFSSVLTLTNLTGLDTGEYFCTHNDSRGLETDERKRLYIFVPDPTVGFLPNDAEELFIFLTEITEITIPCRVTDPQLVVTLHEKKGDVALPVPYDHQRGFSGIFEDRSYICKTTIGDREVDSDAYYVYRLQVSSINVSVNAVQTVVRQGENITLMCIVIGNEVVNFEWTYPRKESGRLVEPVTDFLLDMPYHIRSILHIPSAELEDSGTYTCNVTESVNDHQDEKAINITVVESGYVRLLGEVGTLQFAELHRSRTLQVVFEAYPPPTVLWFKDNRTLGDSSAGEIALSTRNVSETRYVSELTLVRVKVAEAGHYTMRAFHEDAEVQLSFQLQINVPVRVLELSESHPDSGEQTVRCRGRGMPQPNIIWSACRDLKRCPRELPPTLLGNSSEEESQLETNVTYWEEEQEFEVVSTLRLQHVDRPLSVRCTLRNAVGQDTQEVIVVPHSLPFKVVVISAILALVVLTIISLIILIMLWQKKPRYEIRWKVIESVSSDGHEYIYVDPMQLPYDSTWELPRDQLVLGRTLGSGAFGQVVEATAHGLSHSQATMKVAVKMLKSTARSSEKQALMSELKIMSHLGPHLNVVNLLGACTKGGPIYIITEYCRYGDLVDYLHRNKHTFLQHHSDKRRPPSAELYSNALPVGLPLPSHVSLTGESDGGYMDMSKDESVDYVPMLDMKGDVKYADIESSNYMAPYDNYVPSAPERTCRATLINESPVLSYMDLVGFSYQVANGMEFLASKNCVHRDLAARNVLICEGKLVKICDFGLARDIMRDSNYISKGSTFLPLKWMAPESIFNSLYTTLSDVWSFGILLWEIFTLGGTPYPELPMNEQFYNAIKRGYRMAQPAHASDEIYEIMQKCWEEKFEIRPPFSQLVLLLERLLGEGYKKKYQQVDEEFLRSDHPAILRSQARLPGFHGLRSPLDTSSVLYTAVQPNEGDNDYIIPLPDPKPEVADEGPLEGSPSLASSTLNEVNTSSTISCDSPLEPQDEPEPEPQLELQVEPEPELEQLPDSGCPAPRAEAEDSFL

PDGFRA/A homodimers = PDGFRA/A homodimers (Homo sapiens, UniProt P16234); conditions: Gilbertson et al. 2001; cited from earlier work
PDGFRA/A homodimers, sequence (P16234 24-1089, species assumed): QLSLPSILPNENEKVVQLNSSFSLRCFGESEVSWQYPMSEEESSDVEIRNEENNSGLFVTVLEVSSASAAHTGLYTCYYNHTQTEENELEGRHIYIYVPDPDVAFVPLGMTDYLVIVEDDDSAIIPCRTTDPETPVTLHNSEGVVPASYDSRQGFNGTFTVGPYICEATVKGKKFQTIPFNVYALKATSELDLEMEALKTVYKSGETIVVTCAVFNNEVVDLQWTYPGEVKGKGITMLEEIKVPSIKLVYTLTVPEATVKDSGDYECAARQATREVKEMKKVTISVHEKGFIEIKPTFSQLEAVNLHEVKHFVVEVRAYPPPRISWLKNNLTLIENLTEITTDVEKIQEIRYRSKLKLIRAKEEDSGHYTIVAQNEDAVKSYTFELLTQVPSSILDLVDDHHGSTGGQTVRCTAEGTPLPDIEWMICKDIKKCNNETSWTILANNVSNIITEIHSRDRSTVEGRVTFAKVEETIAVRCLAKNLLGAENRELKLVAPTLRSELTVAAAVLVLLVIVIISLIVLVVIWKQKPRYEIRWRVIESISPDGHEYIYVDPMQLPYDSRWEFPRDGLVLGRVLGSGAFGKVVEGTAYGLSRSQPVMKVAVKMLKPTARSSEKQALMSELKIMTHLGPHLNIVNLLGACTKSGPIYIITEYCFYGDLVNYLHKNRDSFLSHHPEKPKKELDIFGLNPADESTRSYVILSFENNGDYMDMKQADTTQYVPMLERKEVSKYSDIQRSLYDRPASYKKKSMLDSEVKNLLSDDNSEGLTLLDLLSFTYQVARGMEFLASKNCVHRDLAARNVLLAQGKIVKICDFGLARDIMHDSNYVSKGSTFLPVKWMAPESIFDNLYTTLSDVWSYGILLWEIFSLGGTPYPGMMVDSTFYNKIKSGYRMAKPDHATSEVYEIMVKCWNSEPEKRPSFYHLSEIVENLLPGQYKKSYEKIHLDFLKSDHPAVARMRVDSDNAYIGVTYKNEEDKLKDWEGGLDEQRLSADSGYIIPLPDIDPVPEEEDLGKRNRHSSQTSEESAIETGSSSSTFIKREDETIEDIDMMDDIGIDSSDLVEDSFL

[2] = 10% lipid diet + PLX5622 for 8 weeks

## COc1ncc(F)cc1CNc1ccc(Cc2c[nH]c3ncc(C)cc23)c(F)n1 [PLX5622]
Lepr^-/- (db/db) mice; 10% lipid diet + PLX5622
  Pdgfc expression in adipose tissue: decreased
  adipocyte size: decreased
  liver inflammation: decreased
Lepr^-/- (db/db) mice; [2]
  adipose tissue mass: decreased
  weight gain: decreased
Lepr^-/- (db/db) mice; iBAT, PLX5622 in diet
  Dio2 expression: increased
  Ucpl expression: increased
C57B1/6J mice
  Dio2 expression in the iBAT: increased
  F4/80+ Tim4- and Tim4+ macrophages: lacked both F4/80^+ Tim4^- and Tim4^+ macrophages
  Ucpl expression in the iBAT: increased
C57B1/6J mice; 45% lipid diet
  TNF/IL1 production: protected against
  hepatic steatosis: protected against
  metabolic syndrome: protected against
C57B1/6J mice; high fat diet
  Pdgfcc expression in fat pads: did not increase
  adipocyte hypertrophy: did not develop adipocyte hypertrophy
  visceral and subcutaneous white adipose tissue mass: did not increase
  weight gain: gained less weight than controls

## IGF1: recombinant mouse IGF1 (R&D systems)
[1]
  rescue of bodipy staining (lipid storage): not

B1: VEGFb: recombinant mouse VEGFb (R&D systems) (protein, UniProt P49766 22-207, looked up)
Vascular endothelial growth …: PVSQFDGPSHQKKVVPWIDVYARATCQPREVVVPLSMELMGNVVKQLVPSCVTVQRCGGCCPDDGLECVPTGQHQVRMQILMIQYPSSQLGEMSLEEHSQCECRPKKKESAVKPDRVAIPHHRPQPRSVPGWDSTPGASSPADIIHPTPAPGSSARLAPSAVNALTPGPAAAAADAAASSIAKGGA
[1]
  rescue of bodipy staining (lipid storage): can also rescue lipid storage

B2: PDGFcc: mature PDGF-CC protein, growth factor domain dimer released by removal of the CUB domain; exemplary SEQ ID NO: 2 (protein, listed as Homo sapiens)
chain: VVDLNLLTEEVRLYSCTPRNFSVSIREELKRTDTIFWPGCLLVKRCGGNCACCLHNCNECQCVPSKVTKKYHEVLQLRPKTGVRGLHKSLTDVALEHHEECDCVCRGSTGG
modifications: homodimer
PDGFRB/B homodimers
  interaction with PDGFRB/B homodimers: fails to interact
PDGFRA/A homodimers
  binding to PDGFRA/A homodimers: high affinity

B3: recombinant PDGFcc: Recombinant mouse PDGFcc, R&D systems Cat# 1447-PC-025/CF, active/cleaved form, SEQ ID NO: 3 (protein, listed as Mus sp.)
chain: B2 chain with D3N, T8K, R12K, S65R, R84K, S108N, T109A
[1]
  rescue of bodipy staining (lipid storage): rescues bodipy staining to control levels
